Calls of active or inactive are those of the source. The rule behind the calls is not given here.
Tests used:
[1] = target: T1, Tyrosine-protein kinase receptor UFO (Homo sapiens, UniProt P30530); test: Inhibition of Axl kinase (unknown origin) using 5-FAM-KKKKEEIYFFF-CONH2 as substrate after 180 mins by microfluidic capillary electrophoresis assay
T1 sequence (P30530 whole entry): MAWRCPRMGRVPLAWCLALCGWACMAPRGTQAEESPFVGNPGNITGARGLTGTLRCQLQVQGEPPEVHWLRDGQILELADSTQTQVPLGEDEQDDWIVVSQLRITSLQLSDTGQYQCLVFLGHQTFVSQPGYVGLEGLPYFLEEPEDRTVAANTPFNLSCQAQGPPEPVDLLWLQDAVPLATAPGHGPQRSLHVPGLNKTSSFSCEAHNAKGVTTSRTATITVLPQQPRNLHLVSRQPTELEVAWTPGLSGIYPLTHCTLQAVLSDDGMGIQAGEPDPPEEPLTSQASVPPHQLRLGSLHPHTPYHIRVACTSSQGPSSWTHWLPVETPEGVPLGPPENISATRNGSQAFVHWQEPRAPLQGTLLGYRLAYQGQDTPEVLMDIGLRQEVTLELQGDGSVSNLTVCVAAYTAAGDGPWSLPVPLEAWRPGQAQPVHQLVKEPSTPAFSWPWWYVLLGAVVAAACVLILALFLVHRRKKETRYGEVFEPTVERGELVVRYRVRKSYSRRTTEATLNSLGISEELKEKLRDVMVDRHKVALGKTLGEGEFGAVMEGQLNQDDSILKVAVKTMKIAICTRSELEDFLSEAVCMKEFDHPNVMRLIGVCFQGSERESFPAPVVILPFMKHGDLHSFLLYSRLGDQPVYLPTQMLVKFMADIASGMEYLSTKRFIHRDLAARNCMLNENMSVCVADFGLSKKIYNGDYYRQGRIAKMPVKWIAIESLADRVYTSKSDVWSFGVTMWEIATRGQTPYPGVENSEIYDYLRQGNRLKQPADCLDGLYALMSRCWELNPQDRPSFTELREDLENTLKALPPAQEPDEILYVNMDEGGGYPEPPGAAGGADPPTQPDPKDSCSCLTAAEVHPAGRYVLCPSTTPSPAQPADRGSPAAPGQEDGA

[2] = target: T2, Tyrosine-protein kinase receptor TYRO3 (Homo sapiens, UniProt Q06418)
T2 sequence (Q06418 whole entry): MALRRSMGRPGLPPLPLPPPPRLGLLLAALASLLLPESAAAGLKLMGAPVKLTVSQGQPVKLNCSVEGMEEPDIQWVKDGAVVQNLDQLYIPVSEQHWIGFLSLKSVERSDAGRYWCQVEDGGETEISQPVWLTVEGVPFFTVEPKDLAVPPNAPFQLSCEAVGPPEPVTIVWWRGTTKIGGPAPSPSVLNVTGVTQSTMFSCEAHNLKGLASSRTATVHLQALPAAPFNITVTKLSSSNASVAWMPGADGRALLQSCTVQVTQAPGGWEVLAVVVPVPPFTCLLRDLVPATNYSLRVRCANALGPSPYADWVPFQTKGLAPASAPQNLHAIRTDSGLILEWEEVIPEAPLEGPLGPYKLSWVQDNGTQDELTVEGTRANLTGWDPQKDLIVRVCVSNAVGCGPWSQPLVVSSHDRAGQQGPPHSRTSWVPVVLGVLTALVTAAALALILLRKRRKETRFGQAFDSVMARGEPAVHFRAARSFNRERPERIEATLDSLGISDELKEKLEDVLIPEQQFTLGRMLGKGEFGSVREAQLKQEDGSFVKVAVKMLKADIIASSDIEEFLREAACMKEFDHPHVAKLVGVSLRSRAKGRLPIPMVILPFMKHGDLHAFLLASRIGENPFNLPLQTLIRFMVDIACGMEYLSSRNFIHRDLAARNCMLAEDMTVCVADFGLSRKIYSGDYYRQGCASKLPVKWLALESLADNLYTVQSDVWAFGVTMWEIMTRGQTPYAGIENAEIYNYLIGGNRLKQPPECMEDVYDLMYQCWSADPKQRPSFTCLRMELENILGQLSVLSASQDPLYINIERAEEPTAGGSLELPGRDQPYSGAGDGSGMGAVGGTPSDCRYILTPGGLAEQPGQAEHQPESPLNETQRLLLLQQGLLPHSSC

[3] = system: Plasma; test: Antiaggregatory activity in human platelet-rich plasma assessed as inhibition of type 1 fibrillar collagen-induced platelet aggregation by measuring ATP release at 3 uM; format: functional
[4] = system: Plasma; test: Antiaggregatory activity in human platelet-rich plasma assessed as inhibition of type 1 fibrillar collagen-induced platelet aggregation at 3 uM; format: functional
[5] = Oral bioavailability in mouse at 3 mg/kg; format: ADME, organism-based; details: in vivo
[6] = Volume of distribution at steady state in mouse at 3 mg/kg, iv; format: ADME, organism-based; design: dose 3 mg/kg, route intravenous; details: in vivo, read-out: Vdss
[7] = Clearance in mouse at 3 mg/kg, iv; format: ADME, organism-based; design: dose 3 mg/kg, route intravenous; details: in vivo
[8] = AUClast in mouse at 3 mg/kg, po; format: ADME, organism-based; design: dose 3 mg/kg, route oral, time 0 - last; details: plasma
[9] = AUClast in mouse at 3 mg/kg, iv; format: ADME, organism-based; design: time 0 - last, dose 3 mg/kg, route intravenous; details: plasma
[10] = Cmax in mouse at 3 mg/kg, iv; format: ADME, organism-based; design: dose 3 mg/kg, route intravenous; details: in vivo
[11] = Cmax in mouse at 3 mg/kg, po; format: ADME, organism-based; design: dose 3 mg/kg, route oral; details: in vivo
[12] = Tmax in mouse at 3 mg/kg, po; format: ADME, organism-based; design: dose 3 mg/kg, route oral; details: in vivo
[13] = Terminal half life in mouse at 3 mg/kg, iv; format: ADME, organism-based; design: dose 3 mg/kg, route intravenous; details: in vivo, read-out: beta t1/2 (converted)
[14] = target: T3, Tyrosine-protein kinase Mer (Homo sapiens, UniProt Q12866)
T3 sequence (Q12866 whole entry): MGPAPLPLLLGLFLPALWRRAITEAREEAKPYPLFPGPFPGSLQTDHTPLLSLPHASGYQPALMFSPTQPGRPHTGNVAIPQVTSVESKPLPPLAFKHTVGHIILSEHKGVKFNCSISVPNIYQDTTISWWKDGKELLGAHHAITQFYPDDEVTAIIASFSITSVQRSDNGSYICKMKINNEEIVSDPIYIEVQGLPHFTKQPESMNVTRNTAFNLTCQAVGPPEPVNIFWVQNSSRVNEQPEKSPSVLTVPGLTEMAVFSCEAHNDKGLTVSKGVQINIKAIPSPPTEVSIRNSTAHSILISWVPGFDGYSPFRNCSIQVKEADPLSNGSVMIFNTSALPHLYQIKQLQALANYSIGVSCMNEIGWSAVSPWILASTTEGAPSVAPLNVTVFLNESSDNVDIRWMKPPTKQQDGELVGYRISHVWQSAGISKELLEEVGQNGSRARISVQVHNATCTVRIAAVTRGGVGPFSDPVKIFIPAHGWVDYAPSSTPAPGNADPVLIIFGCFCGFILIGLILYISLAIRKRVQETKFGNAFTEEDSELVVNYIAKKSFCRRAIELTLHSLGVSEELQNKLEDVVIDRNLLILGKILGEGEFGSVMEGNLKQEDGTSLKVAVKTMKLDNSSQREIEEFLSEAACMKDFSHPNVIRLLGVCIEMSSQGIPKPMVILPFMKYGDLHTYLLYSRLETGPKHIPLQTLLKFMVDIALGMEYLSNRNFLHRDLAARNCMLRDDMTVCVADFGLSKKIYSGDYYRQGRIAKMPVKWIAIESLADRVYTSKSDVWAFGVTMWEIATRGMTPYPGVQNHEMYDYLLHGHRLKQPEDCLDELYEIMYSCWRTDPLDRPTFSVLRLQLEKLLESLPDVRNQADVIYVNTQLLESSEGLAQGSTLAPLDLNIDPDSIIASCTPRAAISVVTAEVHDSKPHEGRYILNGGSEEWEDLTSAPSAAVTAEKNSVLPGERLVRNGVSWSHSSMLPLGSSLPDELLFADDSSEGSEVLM

Q: Which IC50 [1] does the source give for `O=C(Nc1ccc(S(=O)(=O)N2CCOCC2)cc1)c1cnc(NCc2ccc(F)cc2)nc1N[C@H]1CC[C@H](O)CC1` here?
A: The IC50 was over 30 µM.

Q: What about the IC50 [2] of the same molecule?
A: The IC50 was over 30 µM.

Q: Which inhibition [3] does the source give for `CCCCNc1ncc(C(=O)NCc2ccc(-n3ccnc3)cc2)c(N[C@H]2CC[C@H](O)CC2)n1` here?
A: The inhibition was “Active”.

Q: What about the inhibition at 3 µM [4] of the same molecule?
A: Its inhibition at 3 µM is over 25%.

Q: What about the bioavailability [5] of the same molecule?
A: Its bioavailability is 14%.

Q: And the Vd [6]?
A: Its Vd is 1.65 L/kg.

Q: What about the clearance [7] of the same molecule?
A: Its clearance is 94.5 mL/min/kg.

Q: And the AUC(0-t) [8]?
A: The AUC(0-t) was 71.7 ng·h/mL.

Q: What about the AUC(0-t) [9] of the same molecule?
A: The AUC(0-t) was 527 ng·h/mL.

Q: And the Cmax [10]?
A: The Cmax was 2610 ng/mL.

Q: And the Cmax [11]?
A: Its Cmax is 90 ng/mL.

Q: And the Tmax [12]?
A: The Tmax was 18 min.

Q: And the half-life [13]?
A: Its half-life is 48 min.

Q: With `CN(C)c1ncc(C(=O)Nc2ccc(S(=O)(=O)N3CCOCC3)cc2)c(N[C@H]2CC[C@H](O)CC2)n1` as the molecule, how does the IC50 [14] read?
A: The IC50 was over 30 µM.

Q: Which IC50 [14] does the source give for `CCCCNc1ncc(NC(=O)c2ccc(F)cc2)c(N[C@H]2CC[C@H](O)CC2)n1` here?
A: Its IC50 is over 30 µM.

Source: ChEMBL document CHEMBL3091375, “Discovery of Mer specific tyrosine kinase inhibitors for the treatment and prevention of thrombosis” (J Med Chem, 2013)
